From US20040023935A1, “Inhalation compositions, methods of use thereof, and process for preparation of same” (Dey, L.P., priority 2002, published 2004)
Converted amounts (≈) assume the structure as drawn.

Tests used:
[1] = Amount of fluticasone solubilized in aqueous TPGS composition, by order of addition/mixing; format: physicochemical; conditions: target concentration 180 mcg/ml; for solubility: aqueous TPGS composition, aqueous with cosolvent or surfactant or cyclodextrin
Procedure: In one embodiment, the drug is dissolved in the surfactant, such as molten TPGS, and then added to water. For example, when fluticasone propionate is prepared this way with a target concentration of 180 mcg/ml, the amount solubilized by addition of molten TPGS containing the drug to water is about 180 mcg/mL. The amount solubilized by addition of water to molten TPGS, followed by addition of the drug, is only 77 mcg/mL. If the aqueous phase is added to the molten TPGS, the TPGS phase forms a gel and this, apart from making the mixing process slower, makes the amount solubilized lower and variable.
Thus, in Process 1, aqueous phase is added to a solution of the drug in molten TPGS. In Process 2, a solution of the drug in molten TPGS is added to the aqueous phase. To avoid gel formation, the TPGS phase is added to the aqueous phase and slowly. Rapid addition may form gel. Also, high speed mixing reduces the formation of gel.

[2] = Fluticasone solubilized in molten surfactant phase at 60° C.; format: physicochemical
Procedure: Whether the cosolvent, if present, is added to either the molten TPGS phase or the aqueous phase prior to mixing of the concentrate and the aqueous phase has been found herein to affect the stability of the resulting diluted composition. […] Cosolvents such as propylene glycol (PG) and polyethylene glycol 400 (PEG 400) can influence the amount solubilized by affecting the amount dissolved in the molten TPGS phase.
However, the order of addition influences the amount of drug that may be solubilized. If PG or PEG 400 is added in the molten TPGS phase before adding the drug, the amount solubilized increases (see Table 6b, below).

| Structure (SMILES) | Amount solubilized as percent of theoretical concentration, Mean ([1]; Process 1 (Aqueous phase added to the TPGS phase all at once and then mixed)) [%] | Amount solubilized as percent of theoretical concentration, Mean ([1]; Process 2 (TPGS phase added to aqueous phase slowly with mixing)) [%] | Fluticasone solubilized in molten surfactant phase at 60° C. ([2]; Surfactant phase: TPGS alone) | Fluticasone solubilized in molten surfactant phase at 60° C. ([2]; Surfactant phase: TPGS and polyethylene glycol 400 (1:1)) | Fluticasone solubilized in molten surfactant phase at 60° C. ([2]; Surfactant phase: TPGS and propylene glycol (2.4:1)) | solubility ([1]; addition of molten TPGS containing the drug to water) [µg/mL] | solubility ([1]; addition of water to molten TPGS, followed by addition of the drug) [µg/mL] |
| --- | --- | --- | --- | --- | --- | --- | --- |
| C[C@@H]1C[C@H]2[C@@H]3C[C@H](F)C4=CC(=O)C=C[C@]4(C)[C@@]3(F)[C@@H](O)C[C@]2(C)[C@@]1(O)C(=O)SCF [Fluticasone, (6α,9α,11α,16α,17α)-6,9-difluoro-11-hydroxy-16-methyl-3-oxo-17-hydroxyandrosta-1,4-diene-17-carbothioic acid, S-fluoromethyl ester] | 93.64 | 99.53 | 6.5 mg/g of TPGS | 20.0 mg/g of TPGS | 11.9 mg/g of TPGS |  |  |
| CCC(=O)O[C@]1(C(=O)SCF)[C@H](C)C[C@H]2[C@@H]3C[C@H](F)C4=CC(=O)C=C[C@]4(C)[C@@]3(F)[C@@H](O)C[C@@]21C [fluticasone propionate, (6α,9α,11α,16α,17α)-6,9-difluro-11-hydroxy-16-methyl-3-oxo-17-(1-oxopropoxy)androsta-1,4-diene-17-carbothioic acid, S-fluoromethyl ester] |  |  |  |  |  | ~180 (≈ 360 µM) | 77 (≈ 154 µM) |
